Read-outs that look alike come from different tables or passages of the source.
Biological target: BIR3 domain of human cIAP1 (amino acids 256 to 363; cIAP1 BIR3) (Homo sapiens (Human), UniProt Q13490)
Assay: cIAP1 BIR3 binding assay (DELFIA)
Procedure: XIAP BIR3 and cIAP1 BIR3 Binding Assays (DELFIA)
Peptide […]-Lys(Biotin), representing the N-terminus of mature human SMAC (SMAC peptide), was used as interaction partner in the protein-peptide interaction assay.
BIR3 domains (10 nM) were incubated with SMAC peptide (10 nM) in assay buffer (50 mM Tris, 120 mM NaCl, 0.1% BSA, 1 mM DTT, 0.05% TritonX100) for one hour at room temperature in the presence of inhibitory compounds. The assay mixture was transferred to a streptavidin coated plate and incubated for one hour at room temperature to allow binding of the biotinylated peptide and associated BIR3 domains to the plate. After several washing steps Eu labeled anti-GST antibody (e.g. Perkin Elmer DELFIA Eu-N1-antiGST AD0250) was added to detect BIR3 domain-SMAC peptide interactions m according to Perkin Elmer's instructions. […] Time resolved Europium fluoresecence was measured in a Wallac Victor using Standard assay settings.
DELFIA assay results were plotted against compound concentrations and Software GraphPad Prizm was used to calculate half maximal inhibitory concentrations (IC50 values).

[1] = BIR3 domain 10 nM, SMAC peptide 10 nM, values represent the (S)-isomers, * = racemic compound, read-out: cIAP1 BIR-3 IC50

BIR3 domain of human cIAP1 (amino acids 256 to 363; cIAP1 BIR3), sequence (Q13490 256-363): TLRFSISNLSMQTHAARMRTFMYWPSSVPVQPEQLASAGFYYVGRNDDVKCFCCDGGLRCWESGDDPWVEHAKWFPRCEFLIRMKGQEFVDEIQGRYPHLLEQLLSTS

Work on `CNC(C)C(=O)Nc1cc(-c2c(C)nc3cccc(C)n23)cc(NC(=O)c2ccc(Cl)cn2)n1` (stereo not shown) [Example 10, 5-chloro-N-(4-{2,5-dimethylimidazo[1,2-a]pyridin-3-yl]-6-[2-(methylamino)propanamido]-pyridin-2-yl)pyridine-2-carboxamide] yielded an IC50 [1] of 7 nM.
In the case of `CNC(C)C(=O)Nc1cc(-c2c(C)nc3ccccn23)cc(NC(=O)c2ccc(Cl)cn2)n1` (stereo not shown) [Example 6, 5-chloro-N-{6-[2-(methylamino)propanamido]-4-{2-methylimidazo[1,2-a]pyridin-3-yl}pyridin-2-yl}pyridine-2-carboxamide], the IC50 [1] is reported as 10 nM.
`CNC(C)C(=O)Nc1cc(-c2ncnc3cccc(Cl)c23)cc(NC(=O)c2ccc(Cl)cn2)n1` (stereo not shown) [Example 22, 5-chloro-N-[4-(5-chloroquinazolin-4-yl)-6-[2-(methylamino)propanamido]-pyridin-2-yl]pyridine-2-carboxamide] was tested, and the IC50 [1] was 1 nM.
With `CNC(C)C(=O)Nc1cc(-c2c(C)ccc3ncccc23)cc(NC(=O)c2ccc(F)cn2)n1` (stereo not shown) [Example 32, 5-fluoro-N-{6-[2-(methylamino)propanamido]-4-(6-methylquinolin-5-yl)pyridin-2-yl}pyridine-2-carboxamide] the IC50 [1] was 53 nM.
`CNC(C)C(=O)Nc1cc(-c2c(C)ccc3ncccc23)cc(NC(=O)c2ccc3ccccc3n2)n1` (stereo not shown) [Example 36, N-{6-[2-(methylamino)propanamido]-4-(6-methylquinolin-5-yl)pyridin-2-yl}quinoline-2-carboxamide] was tested, and the IC50 [1] was 170 nM.
For `CNC(C)C(=O)Nc1cc(-c2ncnc3nc(C)n(C)c23)cc(NC(=O)c2ccc(Cl)cn2)n1` (stereo not shown) [Example 16, 5-chloro-N-[4-(7,8-dimethyl-7H-purin-6-yl)-6-[2-(methylamino)propanamido]-pyridin-2-yl]pyridine-2-carboxamide], the IC50 [1] was 1 nM.
`Cc1cccc2ccn(-c3cc(NC(=O)c4ccc(Cl)cn4)nc(NC(=O)C(C)N)c3)c12` (stereo not shown) [Example 55, N-[6-(2-aminopropanamido)-4-(7-methyl-1H-indol-1-yl)pyridin-2-yl]-5-chloropyridine-2-carboxamide] showed an IC50 [1] of 45 nM.
With `CNC(C)C(=O)Nc1cc(-c2c(C)ccc3ncccc23)cc(NC(=O)c2cccnn2)n1` (stereo not shown) [Example 43, N-{6-[2-(methylamino)propanamido]-4-(6-methylquinolin-5-yl)pyridin-2-yl}pyridazine-3-carboxamide] the IC50 [1] was 2600 nM.
Compound `CNC(C)C(=O)Nc1cc(-c2cccc3nc(C)c(C)n23)cc(NC(=O)c2ccc(Cl)cn2)n1` (stereo not shown) [Example 11] has an IC50 [1] of 1 nM.
Compound `CNC(C)C(=O)Nc1cc(-c2c(C)ccc3ncccc23)cc(NC(=O)c2ccn(C)n2)n1` (stereo not shown) [Example 41, 1-methyl-N-{6-[2-(methylamino)propanamido]-4-(6-methylquinolin-5-yl)pyridin-2-yl}-1H-pyrazole-3-carboxamide] has an IC50 [1] of 703 nM.
For `CNC(C)C(=O)Nc1cc(-c2ncnc3c(C)nn(C)c23)cc(NC(=O)c2cc3c(cn2)COC3)n1` (stereo not shown) [Example 2, N-(4-{1,3-dimethyl-1H-pyrazolo[4,3-d]pyrimidin-7-yl}-6-[2-(methylamino)propanamido]-pyridin-2-yl)-1H,3H-furo[3,4-c]pyridine-6-carboxamide], the IC50 [1] was 2 nM.
Compound `CNC(C)C(=O)Nc1cc(-c2c(C)ccc3ncccc23)cc(NC(=O)c2ccncn2)n1` (stereo not shown) [Example 37, N-{6-[2-(methylamino)propanamido]-4-(6-methylquinolin-5-yl)pyridin-2-yl)pyrimidine-4-carboxamide] has an IC50 [1] of 428 nM.
Compound `CNC(C)C(=O)Nc1cc(-c2ccncc2C#N)cc(NC(=O)c2ccc(Cl)cn2)n1` (stereo not shown) [Example 4, 5-chloro-N-[4-(3-cyanopyridin-4-yl)-6-[2-(methylamino)propanamido]-pyridin-2-yl]pyridine-2-carboxamide] has an IC50 [1] of 28 nM.
`CNC(C)C(=O)Nc1cc(-c2c(C)ccc3ncccc23)cc(NC(=O)c2cn(C)cn2)n1` (stereo not shown) [Example 45, 1-methyl-N-{6-[2-(methylamino)propanamido]-4-(6-methylquinolin-5-yl)pyridin-2-yl}-1H-imidazole-4-carboxamide] was tested, and the IC50 [1] was 4940 nM.
Compound `CNC(C)C(=O)Nc1cc(-c2nc(C)nc3c(C)c(C)n(C)c23)cc(NC(=O)c2ccc(Cl)cn2)n1` (stereo not shown) [Example 59, 5-chloro-N-{6-[2-(methylamino)propanamido]-4-{tetramethyl-5H-pyrrolo[3,2-d]pyrimidin-4-yl}pyridin-2-yl}pyridine-2-carboxamide] has an IC50 [1] of 1 nM.
Compound `CNC(C)C(=O)Nc1cc(-c2nc(C)nc3c(C)nn(C)c23)cc(NC(=O)c2ncc(Cl)cc2F)n1` (stereo not shown) [Example 62, 5-chloro-3-fluoro-N-{6-[2-(methylamino)propanamido]-4-{trimethyl-1H-pyrazolo-[4,3-d]pyrimidin-7-yl}-pyridin-2-yl)pyridine-2-carboxamide] has an IC50 [1] of 1 nM.
Compound `CNC(C)C(=O)Nc1cc(-c2ccnc3cc(F)cc(F)c23)cc(NC(=O)c2ccc(Cl)cn2)n1` (stereo not shown) [Example 23, 5-chloro-N-[4-(5,7-difluoroquinolin-4-yl)-6-[2-(methylamino)propanamido]-pyridin-2-yl]pyridine-2-carboxamide] has an IC50 [1] of 8 nM.
Compound `CNC(C)C(=O)Nc1cc(-c2ncnc3cccc(C)c23)cc(NC(=O)c2ccc(Cl)cn2)n1` (stereo not shown) [Example 9, 5-chloro-N-{6-[2-(methylamino)propanamido]-4-(5-methylquinazolin-4-yl)pyridin-2-yl}pyridine-2-carboxamide] has an IC50 of 1 nM.
`CNC(C)C(=O)Nc1cc(-c2nccc3c(=O)n(C)n(C)c23)cc(NC(=O)c2ccc(Cl)cn2)n1` (racemic) [Example 58, 5-chloro-N-(4-{1,2-dimethyl-3-oxo-1H,2H,3H-pyrazolo-[3,4-c]pyridin-7-yl}-6-[2-(methylamino)propanamido]-pyridin-2-yl)pyridine-2-carboxamide] showed an IC50 [1] of 3 nM.
For `CNC(C)C(=O)Nc1cc(-c2c(C)nc(C)c3c(=O)n(C)n(C)c23)cc(NC(=O)c2ccc(Cl)cn2)n1` (stereo not shown) [Example 26, 5-chloro-N-{6-[2-(methylamino)propanamido]-4-{1,2,4,6-tetramethyl-3-oxo-1H,2H,3H-pyrazolo[4,3-c]pyridin-7-yl}pyridin-2-yl}pyridine-2-carboxamide], the IC50 [1] was 1 nM.
Work on `CNC(C)C(=O)Nc1cc(-c2cccc3cncc(C)c23)cc(NC(=O)c2ccc(Cl)cn2)n1` (stereo not shown) [Example 53] yielded an IC50 [1] of 1 nM.
In the case of `CNC(C)C(=O)Nc1cc(-c2c(OC)ccc3cc(C#N)ccc23)cc(NC(=O)c2ccc(Cl)cn2)n1` (stereo not shown) [Example 25, 5-chloro-N-[4-(6-cyano-2-methoxynaphihalen-1-yl)-6-[2-(methylamino)propanamido]-pyridin-2-yl]pyridine-2-carboxamide], the IC50 is reported as 47 nM.
`CNC(C)C(=O)Nc1cc(-c2c(C)ccc3ncccc23)cc(NC(=O)c2cc3ccccc3o2)n1` (stereo not shown) [Example 38, N-{6-[2-(methylamino)propanamido]-4-(6-methylquinolin-5-yl)pyridin-2-yl)-1-benzofuran-2-carboxamide] gave an IC50 [1] of 514 nM.
For `CNC(C)C(=O)Nc1cc(-c2ncnc3cccc(F)c23)cc(NC(=O)c2ccc(Cl)cn2)n1` (stereo not shown) [Example 14, 5-chloro-N-[4-(5-fluoroquinazolin-4-yl)-6-[2-(methylamino)propanamido]-pyridin-2-yl]pyridine-2-carboxamide], the IC50 [1] was 1 nM.
Work on `CNC(C)C(=O)Nc1cc(-c2nc(OC)nc3c(C)nn(C)c23)cc(NC(=O)c2ccc(Cl)cn2)n1` (stereo not shown) [Example 63, 5-chloro-N-(4-{5-methoxy-1,3-dimethyl-1H-pyrazolo[4,3-d]pyrimidin-7-yl}-6-[2-(methylamino)-propanamido]pyridin-2-yl)pyridine-2-carboxamide] yielded an IC50 [1] of 55 nM.
Work on `Cc1ccc(C(=O)Nc2cccc(NC(=O)C(C)N)n2)nc1` (stereo not shown) [Example 57, N-[6-(2-aminopropanamido)pyridin-2-yl]-5-methylpyridine-2-carboxamide] yielded an IC50 [1] of 421 nM.
`CNC(C)C(=O)Nc1cc(-c2cccc3nc(C)c(C)n23)cc(NC(=O)Cc2ccccc2)n1` (stereo not shown) [Example 49, N-(4-{2,3-dimethylimidazo[1,2-a]pyridin-5-yl}-6-(2-phenylacetamido)pyridin-2-yl)-2-(methylamino)propanamide] was tested, and the IC50 [1] was 5350 nM.
Compound `CNC(C)C(=O)Nc1cc(-c2c(OC)ccc3nccc(C)c23)cc(NC(=O)c2ccc(Cl)cn2)n1` (stereo not shown) [Example 24, 5-chloro-N-[4-(6-methoxy-4-methylquinolin-5-yl)-6-[2-(methylamino)propanamido]-pyridin-2-yl]pyridine-2-carboxamide] has an IC50 [1] of 1 nM.
`CNC(C)C(=O)Nc1cc(-c2c(C)noc2C)cc(NC(=O)c2ccc(Cl)cn2)n1` (stereo not shown) [Example 3, 5-chloro-N-[4-(dimethyl-1,2-oxazol-4-yl)-6-[2-(methylamino)propanamido]-pyridin-2-yl]pyridine-2-carboxamide] showed an IC50 [1] of 3 nM.
Work on `CNC(C)C(=O)Nc1cc(-c2c(C)ccc3ncccc23)cc(NC(=O)c2ccc(C)cn2)n1` (stereo not shown) [Example 29, 5-methyl-N-{6-[2-(methylamino)propanamido]-4-(6-methylquinolin-5-yl)pyridin-2-yl}pyridine-2-carboxamide] yielded an IC50 [1] of 28 nM.
`CNC(C)C(=O)Nc1cc(-c2nccc3cccc(C)c23)cc(NC(=O)c2ccc(Cl)cn2)n1` (stereo not shown) [Example 8, 5-chloro-N-{6-[2-(methylamino)propanamido]-4-(8-methylisoquinolin-1-yl)pyridin-2-yl}pyridine-2-carboxamide] gave an IC50 [1] of 1 nM.

Reference: patent publication US9249151B2, “Bis-amido pyridines” (Boehringer Ingelheim International GmbH, priority 2013, dated 2016)
